Data as given in US11278624B2, “Formulations” (Arecor Limited, priority 2016, dated 2022).

Tests used:
[1] = 25° C.; as quoted by NIST reference database 46; cited from earlier work
[2] = Size exclusion chromatography main peak of insulin lispro formulations after storage; format: physicochemical; conditions: insulin lispro 100 U/ml with 0.4 mM EDTA; 30° C. for 4 weeks
[3] = Visual assessment of insulin lispro (100 U/ml) formulations with 0.4 mM EDTA and different surfactants after storage; format: physicochemical; conditions: insulin lispro 100 U/ml with 0.4 mM EDTA; for effect of surfactant on precipitation: 30° C. for 4 weeks
Description: (§1) European Pharmacepoeia Monograph (Particulate Contamination: Visible Particles).
(§2) The presence of any particles is recorded.
The effect of different surfactants was tested on stability of insulin lispro (100 U/ml) in the presence of 0.4 mM EDTA. The visual assessment method described in General Methods was used.

[4] = Visual Assessment Scoring Method B, insulin lispro (100 U/ml) with citric acid, storage at indicated temperatures; conditions: insulin lispro 100 U/ml with citric acid 22 mM
Description: The apparatus required consists of a viewing station comprising: • a matt black panel of appropriate size held in a vertical position • a non-glare white panel of appropriate size held in a vertical position next to the black panel • an adjustable lampholder fitted with a suitable, shaded, white-light source and with a suitable light diffuser (a viewing illuminator containing two 13 W fluorescent tubes, each 525 mm in length, is suitable).
Any adherent labels are removed from the container and the outside washed and dried. The container is gently swirled or inverted, ensuring that air bubbles are not introduced, and observed for about 5 s in front of the white panel. The procedure is repeated in front of the black panel. The presence of any particles is recorded.
Whilst the particles in samples with visual scores 4 and 5 are clearly detectable on casual visual assessment under normal light, samples with visual score 1-3 generally appear as clear solutions on the same assessment. Samples with visual scores 1-3 are considered to be “Pass”; samples with visual score 4-5 are considered to be “Fail”.
Stability of insulin lispro (100 U/ml) was investigated in formulations comprising citric acid (22 mM), both in the presence and in the absence of polysorbate 80.

[5] = Visual Assessment Scoring Method B, insulin aspart (100 U/ml) with trisodium citrate, L-histidine or pyrophosphate, storage at 30° C.; format: physicochemical
Description: as §1, §2
(§3) Visual Assessment Scoring Method B
(§4) Visual score 1: Clear solution, virtually free of particles
(§5) Visual score 2: ˜5 very small particles
(§6) Visual score 3: ˜10-20 very small particles
(§7) Visual score 4: 20-50 particles, including larger particles
(§8) Visual score 5: >50 particles, including larger particles

[6] = Visual Assessment Scoring Method B, insulin aspart (1000 U/ml) with different concentrations of citric acid and polysorbate 80; format: physicochemical; conditions: insulin aspart 1000 U/ml with citric acid 44-88 mM
Description: as §1, §2, §3, §4, §5, §6, §7, §8
The stability of insulin aspart (1000 U/ml) was investigated in the presence of different concentrations of citric acid and different concentrations of polysorbate 80. […] Three concentrations of citric acid (44, 66 and 88 mM) and four concentrations of each non-ionic surfactant were tested as well as corresponding surfactant-free compositions.

[7] = Visual Assessment Scoring Method B, insulin aspart (1000 U/ml) with trisodium citrate, L-histidine or pyrophosphate; format: physicochemical
Description: as §1, §2, §3, §4, §5, §6, §7, §8

[8] = Visual Assessment Scoring Method A, insulin aspart (100 U/ml) with 22 mM sodium citrate, storage at 30° C.; format: physicochemical
Description: as §1, §2
Visual Assessment Scoring Method A
Visual score 1: clear solution free of particles
Visual score 2: slight particle formation
Visual score 3: more significant precipitation

O=C(O)CN(CCN(CC(=O)O)CC(=O)O)CC(=O)O [EDTA, ethylenediaminetetraacetate]
log K metal binding stability constant with respect to zinc binding [1]: 14.5

O=C(O)CN(CCOCCOCCN(CC(=O)O)CC(=O)O)CC(=O)O [EGTA, ethyleneglycoltetraacetate]
log K metal binding stability constant with respect to zinc binding [1]: 12.6

CCCCCCCCCCCCC[N+](C)(C)Cc1ccccc1 [benzalkonium chloride]
effect of surfactant on reduction in size of the main peak on SEC and RP-HPLC chromatograms [2]: did not prevent | effect of surfactant on precipitation [3]: prevented precipitation

CC(C)(C)CC(C)(C)c1ccc(OCCOCC[N+](C)(C)Cc2ccccc2)cc1 [benzethonium chloride]
effect of surfactant on reduction in size of the main peak on SEC and RP-HPLC chromatograms [2]: did not prevent | effect of surfactant on precipitation [3]: prevented precipitation

O=C(O)CC(O)(CC(=O)O)C(=O)O [citrate]
log K metal binding stability constant with respect to zinc binding [1]: 4.93

CCCCCCCCCCCCO[C@@H]1O[C@H](CO)[C@@H](O[C@H]2O[C@H](CO)[C@@H](O)[C@H](O)[C@H]2O)[C@H](O)[C@H]1O [dodecyl maltoside]
effect of surfactant on reduction in size of the main peak on SEC and RP-HPLC chromatograms [2]: did not prevent | effect of surfactant on precipitation [3]: prevented precipitation

N[C@@H](Cc1c[nH]cn1)C(=O)O [histidine]
log K metal binding stability constant with respect to zinc binding [1]: 6.51

O=P(O)(O)OP(=O)(O)O [pyrophosphate]
log K metal binding stability constant with respect to zinc binding [1]: 8.71

poloxamer 188
effect of surfactant on destabilising effect of citric acid [4]: notably weaker than that of polysorbate 80 | effect of surfactant on particle formation rate [5]: worse than that of polysorbate 80

polyoxyethylene (20) sorbitan monolaurate [Polysorbate 20]
effect of surfactant on destabilising effect of citric acid [4]: notably weaker than that of polysorbate 80 | effect of surfactant on particle formation rate [5]: not effective at all

polyoxyethylene (20) sorbitan monooleate [polysorbate 80]
effect of surfactant on destabilising effect of citric acid [4]: appeared to mitigate the destabilising effect | stability after storage at 30° C. for 4 weeks ([3]; visual, SEC and RP-HPLC taken together): almost comparable with the EDTA-free control | effect of surfactant on rate of particle formation [6]: reduction in the rate of particle formation | effect of surfactant on rate of particle formation [7]: stabilising effect | effect of surfactant on rate of particle formation [8]: considerable reduction in the rate of particle formation | effect of surfactant on particle formation rate [5]: stabilising effect
